Literature values, collected in publication PMC8472830, “Inclusion of Medium-Chain Triglyceride in Lipid-Based Formulation of Cannabidiol Facilitates Micellar Solubilization In Vitro, but In Vivo Performance Remains Superior with Pure Sesame Oil Vehicle” (Pharmaceutics, 2021).

Legend:
[1] = design: method as in PMID 12412831; conditions: pH 7.4
[2] = design: method as in PMID 29109461, PMID 27648135; conditions: rats, oral, natural sesame oil vehicle
[3] = design: method as in PMID 32634571; conditions: healthy male volunteers

C=C(C)[C@@H]1CCC(C)=C[C@H]1c1c(O)cc(CCCCC)cc1O [CBD, Cannabidiol]
clogD7.4 [1]: 6.53
Drug concentration in lymph fluid compared to plasma [2]: 250 fold
Increase of systemic bioavailability of CBD compared to the lipid-free vehicle [2]: 2.8 fold
Increase of CBD oral absorption in sesame oil compared to CBD powder [3]: eight-fold
